These results are taken from PMC5670239, “Structural basis for mutually exclusive co-transcriptional nuclear cap-binding complexes with either NELF-E or ARS2” (Nature Communications, 2017).

As usually defined, the Kd is the equilibrium constant for the complex coming apart.

In test [1] the target is T1, CBCmut (Homo sapiens, UniProt P52298, Y50A).
T1 sequence (P52298 1-156 Y50A): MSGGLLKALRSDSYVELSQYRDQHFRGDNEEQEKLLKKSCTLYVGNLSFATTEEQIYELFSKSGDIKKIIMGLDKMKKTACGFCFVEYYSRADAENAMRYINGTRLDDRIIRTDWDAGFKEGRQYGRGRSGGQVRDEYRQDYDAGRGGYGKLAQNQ
T1 sequence (Q09161 20-790 Y461A/R610E/H651A partner): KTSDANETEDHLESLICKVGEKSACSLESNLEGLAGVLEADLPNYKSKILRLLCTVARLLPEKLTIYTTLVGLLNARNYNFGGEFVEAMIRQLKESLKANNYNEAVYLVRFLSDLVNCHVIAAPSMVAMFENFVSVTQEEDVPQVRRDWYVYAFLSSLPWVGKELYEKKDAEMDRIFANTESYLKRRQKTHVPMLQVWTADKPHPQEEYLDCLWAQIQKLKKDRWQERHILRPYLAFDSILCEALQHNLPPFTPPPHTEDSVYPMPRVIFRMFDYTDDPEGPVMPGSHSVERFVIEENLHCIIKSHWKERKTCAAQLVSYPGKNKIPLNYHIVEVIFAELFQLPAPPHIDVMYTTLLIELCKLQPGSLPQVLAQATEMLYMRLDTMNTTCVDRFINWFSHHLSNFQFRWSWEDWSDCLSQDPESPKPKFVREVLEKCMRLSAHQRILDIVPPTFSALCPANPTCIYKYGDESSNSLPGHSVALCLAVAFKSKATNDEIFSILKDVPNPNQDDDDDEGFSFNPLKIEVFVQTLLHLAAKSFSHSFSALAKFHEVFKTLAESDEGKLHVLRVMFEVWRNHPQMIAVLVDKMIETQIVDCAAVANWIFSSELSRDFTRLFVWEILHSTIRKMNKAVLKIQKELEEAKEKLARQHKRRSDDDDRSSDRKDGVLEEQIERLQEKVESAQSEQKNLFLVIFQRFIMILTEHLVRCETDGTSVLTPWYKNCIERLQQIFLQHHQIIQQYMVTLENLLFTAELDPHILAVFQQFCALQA
Briefly: ITC, m^7GTP binding to CBCmut. As to conditions: 25 °C, pH 7.8, m^7GTP titrated to CBCmut, mean ± SD of 2 experiments. (In ITC the heat of successive injections is recorded.)
Protocol: For CBC, a triple mutant in CBP80 (Y461A/R610E/H651A) was combined with various mutations in CBP20 (Y50A, Y50A/Y89A, or Y50A/Y89A/D107R).
ITC experiments were performed on a MicroCal ITC200 system (Malvern). Proteins were dialyzed overnight in buffer 20 mM HEPES, 120 mM NaCl, 2 mM tris(2-carboxyethyl)phosphine, pH 7.8. Injections of 1.5 µl protein A were added at an interval of 120–180 s into 205 µl of protein B in the cell, with a stirring speed of 800 rpm at 25 °C. The experimental data were analysed with MicroCal ITC Origin and were fitted to a single-site binding equation.

Test [2] addresses T2, CBC (Homo sapiens, UniProt P52298).
T2 sequence (P52298 1-156): T1 sequence (P52298 1-156 Y50A) with A50Y
T2 sequence (Q09161 20-790 partner): T1 sequence (Q09161 20-790 Y461A/R610E/H651A partner) with A442Y, E591R, A632H
The test can be described thus: ITC, binding to CBC without cap analogue. As to conditions: ITC (MicroCal ITC200), 25 °C, 20 mM HEPES, 120 mM NaCl, 2 mM TCEP, pH 7.8, single-site fit, no cap analogue pre-bound, mean ± SD of at least two independent experiments. An excerpt:
hARS2 isoform-4 (871 residues, UniProt:Q9BXP5-4, also known as isoform-e, NP_001122326) constructs (residues 147–871, 147–845, 763–871, 763–845, 827–871) hNELF-E (NM_002904.5) (244–380, 244–360) and hPHAX (NM_032177.3) (1–394, 103–294, 103–308, 103–327) were cloned into pETM11 (EMBL). Full-length hNELF-E (1–380) was cloned into pFASTBac and CBP20 into pETM30. Primers used are given in Supplementary Table 2. All constructs were expressed in E. coli Rosetta 2 (Novagen), except full-length NELF-E and CBP80ΔNLS (CBP80 with residues 1–19 deleted[2]), which were expressed in High Five insect cells (Life Technology). Cells were harvested and lysed by sonication in lysis buffer containing 50 mM HEPES, pH 7.8, 300 mM NaCl, 10% (v/v) glycerol, 5 mM β-mercaptoethanol. Lysates were clarified by centrifugation and applied on an equilibrated Ni-sepharose column (GE Healthcare), washed with 20 mM imidazole in lysis buffer, and eluted with 300 mM imidazole in lysis buffer. While dialysing into 20 mM HEPES, pH 7.8, 120 mM NaCl, 10% (v/v) glycerol, 5 mM β-mercaptoethanol, the N-terminal 6-histidine-tag was cleaved with His-tagged Tobacco Etch Virus (TEV) protease overnight in a ratio 1:100 mg TEV per mg protein. The cleaved protein was further purified first on Ni-sepharose to remove TEV and then using an anion exchange column (HiTrap Q, GE Healthcare) followed if necessary by a Heparin column (GE Healthcare). In both cases a NaCl gradient from 50 to 800 mM in 20 mM HEPES 7.8, 0.5 mM tris(2-carboxyethyl)phosphine was used. To reconstitute the CBC heterodimer, cleared His-tagged CBP20 lysate was first immobilised on a Ni-sepharose column. After washing the column with lysis buffer, the cleared CBP80 lysate was applied to the column and further purification steps performed as described above. To remove the access of CBP20 the flow through of the Ni-column after TEV cleavage was loaded on an anion exchange column (HiTrap Q, GE Healthcare) and CBC eluted by a NaCl gradient as described above. In the text we refer to CBP80ΔNLS and CBP80ΔNLS-CBP20 as CBP80 and CBC, respectively. […]

Each structure is given as a SMILES string. Substitutions are numbered along the chain they refer to.

In the case of `C[n+]1cn([C@@H]2O[C@H](COP(=O)(O)OP(=O)([O-])OP(=O)(O)O)[C@@H](O)[C@H]2O)c2nc(N)[nH]c(=O)c21` [m^7GTP], the “K D” value in test [1] is listed as “as well as wild-type CBC”. For the same molecule, the values for the dissociation constant Kd in test [1] (SD), in test [2] and in test [2] (SD) were 95 ± 24 nM, 100 nM and 126 ± 45 nM, respectively.
